Test [1] deals with NT-293T cells. The test is classed as cell-based, human.
Test [2] has as its system K562 cells. Description: Sorting of K562 cells expressing flankedccstreptag, RQR8, GST or H6 tags with their respective beads. The test is classed as cell-based. Conditions: for eGFP positive cells in the flow-through fraction / eGFP positive cells in the sorted fraction: K562, respective beads, 12 days post sorting; for eGFP positive cells, pre-sorted population: retrovirally transduced K562 before sorting. How it is done: K562 cells were retrovirally transduced with the four constructs individually. Subsequently cell populations were sorted with their respective beads as per manufacturer protocol. Protein-A Dynabeads were previously incubated with clinical grade human-rituximab over-night at 4 C and washed 5× with PBS to remove any unbound rituximab before adding it to the cells. Sorted fractions were collected as well as the flow through for all sorting. Fractions were assessed for positive cells based on eGFP expression by flow cytometery with a blank channel to account for auto fluorescence from dead cells.
The efficiencies of the different tags (GST, RQR8 and His-tag) at purifying lentiviral particles from cellular media, was tested using the approach previously described for flankcedccstreptag (see Example 2), i.e. by sorting K562 cells expressing these tags on their surface. K562 cells were retrovirally transduced with flankedccstreptag, GST, RQR8 and H6 epitopes separately (FIG. 8, Pre-sorted column). Transduced cells represented a minority of the total population based on eGFP expression; therefore cells were not mixed with NT-K562 cells. Populations expressing flankedccstreptag at 10.5%, RQR8 at 9.75%, GST at 22.7% and H6 […] were thereafter sorted with Streptavidin Dynabeads, human rituximab previously incubated with protein-A bead, Glutathione magnetic beads and His-tag Dynabeads respectively.
Collected fractions were assessed for positive cells 12 days-post sorting. […] Moreover, K562 cells expressing GST epitope were successfully purified from pre-sorting population with 91% eGFP positive cells present in the sorted fraction. […] Conversely, K562 expressing H6 sorting was less successful as only 26.1% of cells in the sorted fraction were eGFP positive while 71.1% of cells were eGFP negative. Additionally, 59.2% eGFP positive cells were in the flow-through. The GST and RQR8 tags therefore show the best activity with regard to purifying viral particles from cellular supernatant in the same manner as flankcedccstreptag epitope.

Test [3] addresses T1, Streptavidin (Streptomyces avidinii, UniProt P22629). The experiment in a line: Streptavidin-APC staining of HEK 293T cells transfected with tag constructs, flow cytometry. It is filed as cell-based. The note with it: 48 hrs post-transfection. How it is done: A. Schematic diagram of the amino acid sequences of the six Streptavidin-binding tags on a CD8 stalk. These constructs co-express the green fluorescent protein (eGFP) via an internal ribosome entry sequence (IRES) downstream of the first open reading frames. B. The constructs were transfected into HEK 293T cells and stained with Streptavidin-APC 48 hours post-transfection and analysed by flow-cytometry. Binding of streptavidin (y-axis) is plotted against eGFP signal.
FIG. 3: Transfection of 293T cells with StreptagII, Flankedccstreptag and ccstretag epitopes in three different formats shown in FIG. 2. 293T cells were also transfected with an irrelevant protein (HA1-TCR beta) co-expressed with eGFP as a negative control. […] Tags were expressed on either a CD8 stalk, a GPI anchor (×1) with one open reading frame or with a GPI anchor (×2) with two copies of the open reading frame. 293T cells transfected with the tagging proteins were stained with Streptavidin APC. The cells were all analysed by flow-cytometry and Streptavidin APC binding (y-axis) is plotted against eGFP signal (x-axis).
An expression construct coding for a signal peptide attached to the amino terminal of theses tags was generated. In addition, the carboxy terminal of these peptide tags was attached to the CD8 stalk, CD8 transmembrane domain and a short part of the CD8 endodomain sufficient to anchor the protein to the membrane. To test their binding to streptavidin, HEK 293T cells were transfected with each construct individually and 48 hrs post-transfection cells were harvested and stained with Streptavidin conjugated to the fluorophore Allophycocyanin (APC) (FIG. 1B).
The optimal format to express these tags on the cell surface for streptavidin binding was then investigated. Additional plasmids were constructed where these tags are expressed on a GPI anchor with one copy of the tags' open reading frames and GPI anchor with two copies of the open reading frames separated by a CD8-based linker (the annotated amino acid sequences of these constructs are depicted in FIG. 2). The binding of these tags was compared with that of the original constructs where the epitopes were placed on a CD8 stalk.
To test their binding to Streptavidin, HEK 293T cells were transiently transfected with the constructs and stained 48 hrs post-transfection with Streptavidin-APC (FIG. 3).

In test [4] the target is T1, Streptavidin. Conditions: biotin mimicking peptide binding streptavidin; read-out: affinity; cited from earlier work.
Test [5] deals with K562 cells. Description: Sorting of K562 cells expressing Flankedccstreptag formats with streptavidin beads. The test is classed as cell-based. On the procedure: Transduced K562 were close to 100% positive for the transgenes after transduction. Positive cells were mixed with non-transduced (NT) K562 pre-sorting. The mixture was incubated with both streptavidin dynabeads (Life technologies, Cat. No. 65601) and streptavidin-microbeads (Miltenyi, Cat. No. 130-048-101) as per manufacturer protocol. The sorted cellular fraction was collected as well as flow-through fraction for both protocols. Sorting was assessed by streptavidin-APC staining and for eGFP positive cell populations 9 days post sorting by flow cytometry.
To establish that the two versions of Flankedccstreptag are able to purify lentivirus from cellular supernatant, an initial experiment was carried out involving sorting of K562 cells expressing these tags on their surface using streptavidin beads. We reasoned that if the tags could attach to a streptavidin matrix while expressed on cells with sufficient stability to allow sorting of expressing cells, they should be suitable for lentiviral capture too.
K562 cells were retrovirally transduced to express the two tags and transduction efficiencies were determined by eGFP expression using flow cytometry (FIG. 4 Transduced K562 plot). Subsequently, transduced cells were mixed with non-transduced K562 to assess the efficiency of sorting using two streptavidin-beads sourced from Life technologies (Dynabeads) and Miltenyi (Microbeads). […]

pKd: −log10 of the molar value. No end group written: not given here.

We go through seven substances from patent US10745715B2, “Method and means for purifying retroviral vectors” (UCL BUSINESS PLC, priority 2014, dated 2020).

T1 sequence (P22629 25-183): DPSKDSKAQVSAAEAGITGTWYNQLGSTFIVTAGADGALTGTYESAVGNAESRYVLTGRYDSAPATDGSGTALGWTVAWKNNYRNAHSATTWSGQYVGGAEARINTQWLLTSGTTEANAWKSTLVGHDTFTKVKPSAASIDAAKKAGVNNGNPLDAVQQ

Take “Flankedccstreptag: biotin mimic tag AECHPQGPPCIEGRK (SEQ ID NO: 2) expressed at the cell surface as tagging protein (Biotin mimicking peptide, flankedccstreptag)”: the “transduction efficiency, neat supernatant” value in test [1] is on record as “high transduction efficiencies”. In addition, in test [2], the “eGFP positive cells in the flow-through fraction” value is “absence of eGFP positive cells”; the “eGFP positive cells in the sorted fraction” value is 93.6%; the “eGFP positive cells, pre-sorted population” value came out at 10.5%. For the same substance, the “binding to Streptavidin-APC” value in test [3] (tag on CD8 stalk) is listed as “successfully bound”. For the same substance, the “binding to Streptavidin-APC” value in test [3] (tag on GPI anchor, two open reading frames (x2)) was “higher binding efficiency than StreptagII and ccstreptag”.
“RQR8: tag with rituximab-binding and Qbend10 epitopes on CD8 stalk, SEQ ID NO: 21”: the “transduction efficiency, neat supernatant” value in test [1] is reported as “high transduction efficiencies”. Further, in test [2], the “eGFP positive cells in the flow-through fraction” value is “absence of eGFP positive cells”; the “eGFP positive cells in the sorted fraction” value was found to be 89.4%; the “eGFP positive cells, pre-sorted population” value turned out to be 9.75%.
Take “biotin mimicking peptide DVEAWLDERVPLVET (SEQ ID NO: 35) (Biotin mimicking peptide, long nanotag)”: in test [4], the pKd was 8.44. Moreover, the “binding to Streptavidin-APC” value in test [3] (tag on CD8 stalk) is given as “did not exhibit any binding”.
Regarding “biotin mimicking peptide DVEAWLGAR (SEQ ID NO: 36) (Biotin mimicking peptide, short nanotag)”, the pKd in test [4] was 7.77. In test [3] (tag on CD8 stalk), the “binding to Streptavidin-APC” value is “did not exhibit any binding”.
Regarding “biotin mimicking peptide WSHPQFEK (SEQ ID NO: 1) [streptagll]”, in test [4], the pKd was 4.14. For the same substance, the “binding to Streptavidin-APC” value in test [3] (tag on CD8 stalk) is “successfully bound”.
As to “disulphide constrained biotin mimicking peptide CHPQGPPC (SEQ ID NO: 3) [ccstreptag]”, the pKd in test [4] is 6.64. For the same substance, the “binding to Streptavidin-APC” value in test [3] (tag on CD8 stalk) is recorded as “successfully bound”.
As to “flankedccstreptag-d8-x2-GPI: two Flankedccstreptag copies separated by CD8-based linker (SEQ ID NO: 5) on a GPI anchor (ECHPQGPPCIEGRKSSGGGGSPAPRPPTPAPTIASECHPQGPPCIEGRKS; cysteine pairing not given here; also: on a GPI anchor, small tags and cut ends left off)”, the “sorting of tag-expressing K562 cells from mixture with NT K562” value in test [5] (streptavidin microbeads (Miltenyi)) is recorded as “successful”; in test [5] (streptavidin-dynabeads (Life technologies), eGFP), “successfully sorted”.
